In US10118922B2 (Janssen Pharmaceutica NV, priority 2013, dated 2018):

Assays:
[1] = molecular target: T1, short form of the GPR120 receptor (Homo sapiens, UniProt Q5NUL3); assay: Human GPR120 DiscoveRx PathHunter beta-arrestin assay, Procedure β-arrestin B; assay type: cell-based; conditions: PathHunter CHO-K1 GPR120S β-Arrestin cells, 5000 cells/well; read-out: hGPR120 β-arrestin B EC50
T1 construct: host or cells: PathHunter CHO-K1 GPR120S β-Arrestin Cell Line
T1 sequence (Q5NUL3 1-361): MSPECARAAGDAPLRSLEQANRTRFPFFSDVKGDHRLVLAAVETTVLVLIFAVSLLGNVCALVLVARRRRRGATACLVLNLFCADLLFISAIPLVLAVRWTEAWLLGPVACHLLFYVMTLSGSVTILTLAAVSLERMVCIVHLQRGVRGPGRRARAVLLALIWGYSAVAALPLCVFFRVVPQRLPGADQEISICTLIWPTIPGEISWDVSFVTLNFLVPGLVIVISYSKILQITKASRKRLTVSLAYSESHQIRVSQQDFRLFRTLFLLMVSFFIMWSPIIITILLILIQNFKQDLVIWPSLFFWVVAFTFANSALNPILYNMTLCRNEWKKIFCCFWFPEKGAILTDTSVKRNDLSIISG
Source text: The binding of an agonist (medium/long chain fatty acids or small molecule agonists) to the G-protein-coupled receptor GPR120 activates phospholipase C, leading to release of intracellular Ca^+2 through the generation of inositol 1,4,5-trisphosphate (InsP3 or IP3). GPR120 activation can also trigger intracellular signaling via recruitment of Beta-Arrestin. In the present method, agonist-induced activation of the human GPR120 receptor is monitored through the use of PathHunter CHO-K1 GPR120 Beta-Arrestin Cell Line engineered by DiscoveRx, as detailed below. The cell lines are designed to co-express both the ProLink/Enzyme Donor (PK)-tagged GPCR and the Enzyme […] (EA)-tagged Beta-Arrestin fusion proteins. Upon GPR120 receptor stimulation/activation, the EA-tagged Beta-Arrestin portion is translocated to the tagged receptor, where the two enzyme fragments are brought within close proximity. Under these conditions, these fragments can interact and form an active Beta-gal enzyme complex through Enzyme Fragment Complementation (EFC). This active Beta-gal complex can enzymatically hydrolyse the substrate to produce a detectable light signal; therefore, activation as a function of agonist concentration can be expressed as an EC50 value to determine relative compound activities. This in vitro assay therefore serves to assess compound agonist activity of the GPR120.
In Procedure β-arrestin B the cells used were PathHunter CHO-K1 GPR120S β-Arrestin Cell Line, expressing the short form of the GPR120 receptor (Accession #NM 181745), with 5000 cells/well.
The selected CHO-K1 GPR120 β-Arrestin cells were cultured in Ham's F12 media supplemented with 10% fetal bovine serum (FBS), 1% Glutamine, 1×p/s, 800 μg/mL G418 and 300 μg/mL Hygromycin B (for selection). Cell stocks were maintained and grown in a sub-confluent state using standard cell culture procedures. The day before the experiment, the cells were harvested with non-enzymatic cell dissociation buffer and re-suspended in complete growth media at the desired concentration. A Corning 384-plate was then seeded with the proper number of cells in a volume of 25 μL, per well. The seeded plates were incubated overnight at 37° C.
On the day of the experiment, the Assay Buffer containing (a) HBSS with Ca^++ and Mg^++, (b) 20 mM HEPES, and (c) 0.1% BSA stabilizer (pH 7.4) was prepared. The growth medium was gently removed from the cell plates and 20 μL of Assay Buffer added to each well. The plate was then incubated at 37° C. for 60 min. Test compounds were serially diluted in Assay Buffer to desired concentrations (more particularly to one or more of the following μM concentrations: 25, 12.5, 6.25, 3.125, 1.5625, 0.78125, 0.390625, 0.1953125, 0.09765625, 0.048828125, 0.024414063, 0.012207031). Five μL of compound dilution was then added to each well and the plate incubated at 37° C. for 90 min. The detection reagents were prepared according to the manufacture's instruction. Twelve μL of the detection reagents were added to each well and the plate incubated at room temperature for 60 min.
The plates were read on an EnVision instrument, using Protocol name: Luminescence, Plate type: 384 Costar, Measurement height: 3 mm, Measurement time: 1 s, Aperture: 384 Plate aperture. The % activity relative to the positive control was calculated using the following equation:
The % Activity values were plotted versus the concentration of test compound and fitted to a sigmoidal dose-response curve with a Hill slope=1 (fixed value) using nonlinear regression with GraphPad Prism 5.0 to calculate the EC50 values. The Fitting Equation was: Y=Bottom+(Top-Bottom)/(1+10^((Log EC50−X)*HillSlope)), where X is the log of the concentration and Y is the response.

Human GPR120 short form = molecular target: T2, Human GPR120 short form (Homo sapiens, UniProt Q5NUL3); assay: Human GPR120 calcium flux assay, Procedure Calcium A; assay type: cell-based; conditions: HEK-293 cells, FLIPR, 2500 cells/well; read-out: GPR120 Ca2+ Assay A EC50
T2 construct: expressed in transfected cells
T2 sequence (Q5NUL3 1-361): T1 sequence (Q5NUL3 1-361)
Protocol: These cells are first loaded with the Ca^+2 sensitive dye, Fluo-4 NR. Upon stimulation, intracellular released Ca^+2 can bind to the dye and alter its fluorescence intensity. This increase in fluorescence signal, and thus the flux in intracellular [Ca^2+], is detected and quantitated by fluorescence imaging using a FLIPR reader. The effect of the agonist is measured as a function of concentration and used to calculate an EC50 based upon a response curve.
In this procedure 2500 cells/well were employed.
A Human GPR120 clone (Genbank accession number NM_001195755.1) was placed into the pcDNA3.1 mammalian expression vector carrying the neomycin resistance gene. A stable mammalian cell was generated by placing the above clone into a HEK293 background. […] Cells were split 2 times a week to keep the cells in the log-phase growth.
In preparation for the assay, HEK cells stably transfected with Human GPR120 (2.5K cells per well in 25 uL growth medium) were seeded into 384-well plates and then incubated overnight (37° C., 5% CO2). The next day, the media was changed to 20 μL assay buffer and the cell starved for 1 h at 37° C. The dye loading solution (2× dye) was prepared using 10 mL assay buffer, 100 μL of 250 mM probenecid, 1 bottle of Component A, and 20 μl of dye in DMSO. Twenty μL of the 2× dye loading buffer was then added to each well. The plates were incubated at 37° C. for 30 min, then at room temperature for an additional 15 minutes, before performing the assay on FLIPR.
The assay was performed on a FLIPR plate reader using the following parameters. Baseline was read for 10 seconds at 1 sec intervals. The program was set to transfer 10 μL of ligand from compound plate to cell plate after baseline reading. Aspiration was executed at: 10 μL/sec speed, 4.6 μL height; Dispensing was executed at: 30 μL/sec speed, 45 μL height. After compound addition, each well was read for 300 sec, with measurements collected at 1 sec intervals.
The kinetic data from the FLIPR was based upon a 5 minute window for data collection. The fluorescence of each sample well was used for individual calculations of a normalized RFU value, which was defined as maximum response minus the minimum response. […] The Fitting Equation was: Y=Bottom+(Top-Bottom)/(1+10^((Log EC50−X)*HillSlope)), where X is the log of the concentration and Y is the response.

C57bl/6J Mice = assay: GPR120 C57bl6 mouse IPGTT; assay type: in vivo; conditions: dosed 30 min prior to glucose IP 1.5 g/kg
Protocol: (§1) Male, C57bl/6J Mice were ordered in at 8 weeks of age from Jackson Labs. Individual mice weighed anywhere in the range of 25-30 grams on study day. The mice were fasted, with removal of food occurring at 7 am on the morning of the study. Animals were moved into the room at 10:00 am, to give them time to acclimate. Glucose (insulin syringes) was drawn up either the night before or the morning of the study. Glucose was dosed (IP) at 1.5 g/kg at 7.5 ml/kg (20% glucose straight TEKNOVA, 250 ml sterile bottle w/ catalogue number G0525). Test compounds were kept spinning and were only drawn into the syringes prior to study commencement. Animals were bled via tail snip to determine basal glucose levels prior to dosing of treatments. An Ascensia BREEZE Blood Glucose Monitoring System by Bayer (using unique 10-test disks) was used for determining glucose levels. The bleeds started at approximately 12:45 pm and dosing started, at 1-minute intervals, immediately after. All groups were dosed 30 minutes prior to glucose administration at a dose volume of 10 ml/kg (the dose volume was calculated separately for each individual animal). Thirty minutes after the first dose animals were bled again for a second baseline, or T=0, and immediately dosed with glucose via an i.p. injection. The exact dose volume for glucose was also calculated separately for each individual animal. Glucose measurements were taken at −30 min prior to compound dose, at t=0 (immediately prior to glucose dose), and at 15, 30, 45, 60, 90 min post glucose dose.
(§2) Glucose values were entered into an Excel sheet and graphed in GraphPad Prism. The following were calculated from Prism: Change from −30 to 0 BSLN Glucose, Raw Glucose AUC −30 to 90 min, Delta Glucose AUC −30 to 90 min, Raw Glucose AUC 0 to 90 min, Delta Glucose AUC 0 to 90 min.

C57b16 mouse = C57b16 mouse OGTT; assay type: in vivo; conditions: dosed 30 min prior to glucose PO 3 g/kg
Protocol: as §1, §2
The assay design is the same as that described above for the C57b16 mouse IPGTT. The difference is that glucose was dosed PO at 3 g/kg, 7.5 ml/kg of 40% glucose.

Row | EC50 [1] [µM] | EC50 (Human GPR120 short form) [µM] | Compound | C57 IPGTT 3 mg/kg (C57bl/6J Mice) | C57 OGTT 3 mg/kg (C57b16 mouse) | C57 IPGTT 10 mg/kg (C57bl/6J Mice)
1 | 1.51 | 0.382 | CC(C)Oc1cc(C(F)(F)F)sc1COc1c(F)cc(CCC(=O)O)cc1F [Cpd 16, 3-(3,5-Difluoro-4-{[3-(1-methylethoxy)-5-(trifluoromethyl)thiophen-2-yl]methoxy}phenyl)propanoic acid] |  |  | 
2 |  |  | COc1ccc(-c2csc(C(F)(F)F)c2COc2c(F)cc(CCCO)cc2F)cn1 [Cpd 38, 3-(3,5-difluoro-4-((4-(6-methoxypyridin-3-yl)-2-(trifluoromethyl)thiophen-3-yl)methoxy)phenyl)propan-1-ol] | −9 | −44 | 
3 |  |  | COc1ccc(-c2csc(C(F)(F)F)c2COc2c(F)cc(CCC(=O)O)cc2F)cn1 [Cpd 42, 3-(3,5-difluoro-4-((4-(6-methoxypyridin-3-yl)-2-(trifluoromethyl)thiophen-3-yl)methoxy)phenyl)propanoic acid] | −14 | −44 | 
4 |  |  | OCCCc1cc(F)c(OCc2c(-c3ccc(Cl)cc3)csc2C(F)(F)F)c(F)c1 [Cpd 46, 3-(4-[[4-(4-chlorophenyl)-2-(trifluoromethyl)thiophen-3-yl]methoxy]-3,5-difluorophenyl)propan-1-ol] | −26 | −49 | −75
5 |  |  | CCc1ccc(-c2snc(Cl)c2COc2ccc(CCC(=O)O)c(C)c2C)cc1 [Cpd 85, 3-(4-[[3-chloro-5-(4-ethylphenyl)-1,2-thiazol-4-yl]methoxy]-2,3-dimethylphenyl)propanoic acid] | −29 | −49 | −48
6 |  |  | OCCCc1cc(F)c(OCc2c(-c3ccc(Cl)cc3)nsc2C(F)(F)F)c(F)c1 [Cpd 100, 3-(4-[[3-(4-chlorophenyl)-5-(trifluoromethyl)-1,2-thiazol-4-yl]methoxy]-3,5-difluorophenyl)propan-1-ol] |  | −39 | −42
7 |  |  | OCCCc1ccc(OCc2c(Cl)nsc2-c2ccc(Cl)cc2)c(F)c1F [Cpd 102, 3-(4-((3-chloro-5-(4-chlorophenyl)isothiazol-4-yl)methoxy)-2,3-difluorophenyl)propan-1-ol] |  | −32 | 
8 | 0.118 | 0.089 | Cc1ccc(-c2snc(Cl)c2COc2c(F)cc(CCC(=O)O)c(F)c2F)c(F)c1 [Cpd 107, 3-(4-{[3-Chloro-5-(2-fluoro-4-methylphenyl)isothiazol-4-yl]methoxy}-2,3,5-trifluorophenyl)propanoic acid] |  |  | 
9 | 0.31 | 0.107 | COc1ccc(-c2nsc(C(F)(F)F)c2COc2ccc(CCC(=O)O)c(C)c2C)c(F)c1 [Cpd 120, 3-(4-{[3-(2-Fluoro-4-methoxyphenyl)-5-(trifluoromethyl)isothiazol-4-yl]methoxy}-2,3-dimethylphenyl)propanoic acid] |  |  | 
10 |  |  | Cc1c(CCC(=O)O)ccc(OCc2c(-c3ccc(Cl)cc3)nsc2C(F)(F)F)c1C [Cpd 142, 3-(4-((3-(4-chlorophenyl)-5-(trifluoromethyl)isothiazol-4-yl)methoxy)-2,3-dimethylphenyl)propanoic acid] | −34 | −49 | −61
11 | 0.819 | 0.274 | O=C(O)CCc1ccc(OCc2c(C(F)(F)F)nsc2-c2ccc(Cl)cc2)c(Cl)c1Cl [Cpd 181, 3-(2,3-Dichloro-4-{[5-(4-chlorophenyl)-3-(trifluoromethyl)isothiazol-4-yl]methoxy}phenyl)propanoic acid] |  |  | 
12 | 1.94 | 0.405 | Cc1c(CCC(=O)O)ccc(OCc2c(C(C)(C)C)nsc2C(F)(F)F)c1C [Cpd 198, 3-(4-{[3-tert-Butyl-5-(trifluoromethyl)isothiazol-4-yl]methoxy}-2,3-dimethylphenyl)propanoic acid] |  |  | 
